Like-named read-outs stand apart in the source and are kept apart here.
Key:
[1] = test system: T. b. brucei 427 bloodstream trypanosomes; experiment: T. b. brucei resazurin viability assay; type: cell-based, Trypanosoma brucei brucei
[2] = test system: L. donovani MHOM/IN/80/DD8 intracellular amastigotes; experiment: Leishmania donovani intracellular amastigote assay in THP-1 cells; type: cell-based; settings: Leishmania donovani, THP-1, intracellular amastigotes
[3] = test system: T. cruzi C4 β-galactosidase reporter parasite in MRC 5SV2 host cells; settings: cited from earlier work
[4] = test system: T. brucei brucei; settings: ref Pbox supporting information; read-out: T.b. brucei Pbox IC50; cited from earlier work
[5] = test system: T. brucei rhodesiense; settings: ref Pbox supporting information, cited from earlier work; for IC50: read-out: T .b. rohdensie Pbox IC50
[6] = test system: L. infanium (macrophages); set-up: method as in Pbox supporting information; settings: ref Pbox supporting information; cited from earlier work
[7] = test system: HepG2; settings: cited from earlier work
[8] = test system: Plasmodium falciparum 3D7 asexual blood stage; experiment: microbe, parasite or virus in culture
[9] = test system: HEK293 cells; experiment: HEK293 resazurin cell cytotoxicity assay; settings: Homo sapiens
[10] = test system: NF54-pfs16-LUC-GFP stage IV gametocytes; experiment: Plasmodium falciparum late stage gametocyte (LSG) image-based assay; type: cell-based; settings: for IC50: Plasmodium falciparum
[11] = test system: P. falciparum ABS; settings: P. falciparum 3D7; ref PBox supporting information; read-out: Pf 3D7 Pbox IC50; cited from earlier work
[12] = test system: P. falciparum stage V gametocytes; settings: cited from earlier work; for activity against gametocytes (stage V), PBox supporting information: ref Pbox supporting information; for IC50: stage V gametocytes, ref PBox supporting information, read-out: PF stage V GAMS PBox IC50
[13] = test system: T. cruzi intracellular amastigotes; experiment: Intracellular anti-Trypanosoma cruzi image-based assay (amastigotes); type: cell-based; settings: for IC50: Trypanosoma cruzi
[14] = Trypanosoma brucei; read-out: T b.brucei Discovery Biology IC50
[15] = some values marked *, read-out: L, donovani Discovery Biology IC50
[16] = ref Pbox supporting information, read-out: T. cruzi Pbox IC50
[17] = HepG2, ref PBox supporting information
[18] = 3D7, read-out: Antiplasmodial IC50 (ABS), PBox compounds, P. falciparum 3D7
[19] = HEK293, read-out: HEK % Inhibition 20uM/IC50 Discovery Biology
[20] = NF54, read-out: Pf Stage IV GAMS Discovery Biology IC50 µM, stage IV gametocytes
[21] = HEK293, read-out: HEK % Inhibition 20uM/IC50 Discovery Biology (IA)
[22] = 7 days exposure, ref PBox supporting information, read-out: T. cruzi IC50 in the PBox supporting information file
[23] = 3D7, read-out: Pf 3D7 Discovery Biology IC50, P. falciparum 3D7 asexual blood stage
[24] = HEK293, read-out: HEK % Discovery Biology IC50
[25] = intracellular amastigotes, read-out: T cruzi Discovery Biology IC50

With O=C(Nc1ccc2c(c1)B(O)OC2)c1ccccc1C(F)(F)F [MMV652003] as the compound, how does the IC50 [1, 14] read?
The IC50 was 110 nM.

What about the IC50 [2, 15] of the same compound?
Its IC50 is 1250 nM.

And the IC50 [3, 16]?
Its IC50 is 270 nM.

What about the IC50 [4] of the same compound?
The IC50 was 150 nM.

And the IC50 [5]?
Its IC50 is 230 nM.

What about the IC50 [6] of the same compound?
Its IC50 is 1410 nM.

What about the “HepG2 PBox CC20” value [7, 17] of the same compound?
The value was 400 nM.

And the IC50 [8, 18]?
Its IC50 is 920 nM.

And the inhibition at 20 µM [9, 19]?
The inhibition at 20 µM was 78%.

What does the source list for O=C(Nc1nc(-c2ccccn2)cs1)C1CC1c1ccccc1F (stereo not shown) [MMV1028806]?
activity in the Discovery Biology stage IV gametocyte (LSG) assay [10]: demonstrate activity; IC50 [10, 20]: 0.42 µM; IC50 [11]: > 2000 nM; activity against gametocytes (stage V), PBox supporting information [12]: demonstrate activity; IC50 [12]: 520 nM; IC50 [9, 21]: > 20000 nM

Which results are given for N=C(N)Nc1ccc(-c2ccc(-c3ccc(NC(=N)N)cc3Cl)o2)c(Cl)c1 [MMV688179]?
IC50 ([10]; NF54, read-out: Pf Stage IV GAMS Discovery Biology IC50, stage IV gametocytes): 4.1 µM; activity against T. cruzi in the Discovery Biology assay [13]: lack of activity; activity against T. cruzi at 8 μM in the Discovery Biology assay [13]: no activity; IC50 [1, 14]: 5680 nM; IC50 [3, 22]: < 1000 nM; IC50 [3, 16]: 290 nM; IC50 [4]: 1030 nM; IC50 [5]: 230 nM; IC50 [6]: 1010 nM; HepG2 PBox CC20 [7, 17]: 6800 nM; IC50 [8, 18]: 590 nM; IC50 [9, 19]: > 20000 nM

What does the source list for Cc1ccc(-c2nc(CN(Cc3ccccn3)C(C)C)cs2)o1 [MMV1088520]?
IC50 [10, 20]: 0.67 µM; IC50 [11]: > 2000 nM; IC50 [12]: 450 nM; inhibition at 20 µM [9, 19]: 79%

Which IC50 [1, 14] does the source give for CNC(=O)c1nn(C)c2c1C(C)(C)Cc1cnc(Nc3ccc(N4CCN(C)CC4)cc3)nc1-2 [MMV676602] here?
Its IC50 is 170 nM.

What about the IC50 [2, 15] of the same compound?
Its IC50 is 1430 nM.

And the IC50 [3, 16]?
The IC50 was 1050 nM.

And the IC50 [4]?
The IC50 was under 130 nM.

And the IC50 [5]?
The IC50 was under 130 nM.

What about the IC50 [6] of the same compound?
The IC50 was 850 nM.

What about the “HepG2 PBox CC20” value [7] of the same compound?
The value was under 260 nM.

What about the IC50 [8, 23] of the same compound?
The IC50 was 3170 nM.

What about the IC50 [9, 24] of the same compound?
Its IC50 is 1300 nM.

For Cc1nn(C)c(C)c1NS(=O)(=O)c1c(Cl)cc(-c2ccnc(N3CCNCC3)c2)cc1Cl [MMV688180], which IC50 ([13]; read-out: T cruzi Discovery Biology IC50) is on record?
Its IC50 is 2910 nM.

And the IC50 ([1]; Trypanosoma brucei, read-out: T b.brucei Discovery Biology IC50)?
Its IC50 is 10 nM.

And the IC50 [3, 16]?
Its IC50 is 850 nM.

What about the IC50 [4] of the same compound?
Its IC50 is under 130 nM.

And the IC50 [5]?
The IC50 was under 130 nM.

What about the IC50 [6] of the same compound?
The IC50 was 1010 nM.

And the “HepG2 PBox CC20” value [7, 17]?
Its value is 45.4 nM.

And the IC50 [8, 23]?
The IC50 was 630 nM.

What about the IC50 [9, 24] of the same compound?
Its IC50 is 660 nM.

Which “activity in the Discovery Biology stage IV gametocyte (LSG) assay” value [10] does the source give for Cc1cc(C)nc(-n2nc(C)cc2Nc2ccccc2)n1 [MMV062221] here?
The value was “demonstrate activity”.

And the IC50 [10, 20]?
Its IC50 is 0.57 µM.

And the IC50 [11]?
The IC50 was over 2000 nM.

What about the “activity against gametocytes (stage V), PBox supporting information” value [12] of the same compound?
Its value is “demonstrate activity”.

What about the IC50 [12] of the same compound?
Its IC50 is 220 nM.

And the IC50 [9, 21]?
Its IC50 is over 20000 nM.

With N=C(N)Nc1ccc(-c2ccc(-c3ccc(NC(=N)N)c(Cl)c3)o2)cc1Cl [MMV688271] as the compound, how does the “activity against T. cruzi in the Discovery Biology assay” value [13] read?
Its value is “lack of activity”.

And the “activity against T. cruzi at 8 μM in the Discovery Biology assay” value [13]?
The value was “no activity”.

What about the IC50 [1, 14] of the same compound?
The IC50 was 520 nM.

What about the IC50 [2, 15] of the same compound?
Its IC50 is 3310 nM.

What about the IC50 [3, 22] of the same compound?
The IC50 was under 1000 nM.

What about the IC50 [3, 16] of the same compound?
Its IC50 is 660 nM.

What about the IC50 [4] of the same compound?
The IC50 was 600 nM.

And the IC50 [5]?
The IC50 was 200 nM.

And the IC50 [6]?
The IC50 was 10200 nM.

What about the “HepG2 PBox CC20” value [7, 17] of the same compound?
The value was 13500 nM.

What about the IC50 [8, 18] of the same compound?
The IC50 was 1210 nM.

What about the IC50 [9, 19] of the same compound?
Its IC50 is over 20000 nM.

For O=C(Nc1ccc(F)c(-c2nc3cc(-c4ccccc4)cnc3[nH]2)c1)N1CCCC1 [MMV688372], which IC50 [13, 25] is on record?
The IC50 was 190 nM.

What about the IC50 [1, 14] of the same compound?
Its IC50 is 20 nM.

What about the IC50 ([2]; PBox compounds, read-out: IC50 L. donovani (Discovery Biology)) of the same compound?
Its IC50 is 1150 nM.

And the IC50 [2, 15]?
Its IC50 is 1510 nM.

What about the IC50 [3, 16] of the same compound?
Its IC50 is under 130 nM.

What about the IC50 [4] of the same compound?
Its IC50 is under 130 nM.

What about the IC50 [5] of the same compound?
The IC50 was under 130 nM.

And the IC50 [6]?
The IC50 was 160 nM.

What about the IC50 [9, 24] of the same compound?
Its IC50 is 4600 nM.

For CCCCN(CCCC)c1c(C#N)cc(S(=O)(=O)Nc2ccccc2)cc1C#N [MMV688467], which IC50 ([13]; PBox compounds, intracellular amastigotes, 48 h exposure, read-out: IC50 T. cruzi (Discovery Biology)) is on record?
The IC50 was 3980 nM.

And the IC50 [1, 14]?
Its IC50 is 1150 nM.

What about the IC50 [3, 16] of the same compound?
The IC50 was 820 nM.

And the IC50 [4]?
Its IC50 is 260 nM.

What about the IC50 [5] of the same compound?
The IC50 was 240 nM.

And the IC50 [6]?
The IC50 was 13600 nM.

What about the “HepG2 PBox CC20” value [7, 17] of the same compound?
The value was 11900 nM.

What about the IC50 [9, 19] of the same compound?
Its IC50 is over 20000 nM.

With CCc1ccccc1-n1c(C)cn2c3c(=O)n(C(C(=O)OC)C(C)C)c(=O)n(C)c3nc12 (stereo not shown) [MMV688550] as the compound, how does the “selectivity index (SI) T. cruzi versus HEK293” value ([13]; HEK293) read?
The value was over 31.

And the IC50 [13, 25]?
The IC50 was 640 nM.

And the “selectivity index (SI) T. brucei brucei versus HEK293” value ([1]; HEK293)?
Its value is over 154.

What about the IC50 [1, 14] of the same compound?
The IC50 was 130 nM.

And the IC50 [3, 16]?
The IC50 was 990 nM.

What about the IC50 [4] of the same compound?
The IC50 was under 130 nM.

And the IC50 [5]?
The IC50 was under 130 nM.

And the IC50 [6]?
Its IC50 is over 32000 nM.

And the “HepG2 PBox CC20” value [7, 17]?
The value was 44300 nM.

And the IC50 [8, 18]?
Its IC50 is 2480 nM.

And the IC50 [9, 19]?
The IC50 was over 20000 nM.

With NCCN(C(=O)c1ccc(Cl)cc1Cl)c1ccc(OCc2ccc(Cl)cc2)cc1 [MMV688371] as the compound, how does the IC50 [13, 25] read?
The IC50 was 4350 nM.

What about the IC50 [1, 14] of the same compound?
Its IC50 is 240 nM.

What about the IC50 [3, 16] of the same compound?
Its IC50 is 620 nM.

And the IC50 [4]?
The IC50 was under 130 nM.

What about the “activity against T. brucei rhodesiense” value [5] of the same compound?
The value was “demonstrated activity”.

And the IC50 [5]?
The IC50 was under 130 nM.

And the IC50 [6]?
The IC50 was 630 nM.

And the IC50 [9, 19]?
The IC50 was over 20000 nM.

From paper PMC5571359, “Screening the Medicines for Malaria Venture Pathogen Box across Multiple Pathogens Reclassifies Starting Points for Open-Source Drug Discovery” (Antimicrobial Agents and Chemotherapy, 2017)
